Experimental findings from patent US20250353844A1, “TETRAHYDROPYRIDO 3,4-D PYRIMIDINE DERIVATIVES AS KRAS INHIBITORS” (Bristol-Myers Squibb Company, priority 2022, published 2025) are described below.

pIC50: −log10 of the molar value.

The target of the assay is Recombinant GMPPNP-loaded KRAS G12C (KRAS-G12C(ON)) / GST-RAF1 RBD (Homo sapiens, UniProt P01116, G12C). The assay is described as follows: KRAS G12C RAF Disruption Assay (HTRF). The conditions noted are these: GMPPNP-loaded KRAS G12C 5 nM, compound 20 min at room temperature, GST-RAF1 RBD 9 nM, HTRF signal; read-out: KRASG12C RAF Disruption Assay (IC50). Type of assay: biochemical. How it is done:
Recombinant GST-RAF1 RBD (9 nM) was added, and the reaction mixture was incubated for 20 minutes. SA-Tb (0.25 nM) was added, and the reaction mixture was incubated for 3 hours. HTRF signal was measured (PerkinElmer Envision), the signal ratio (λem 520/λem 495) was calculated, and IC50 values were calculated from the dose-response curve.

Recombinant GMPPNP-loaded KRAS G12C (KRAS-G12C(ON)) / GST-RAF1 RBD, sequence (P01116 1-188 isoform P01116-2 G12C): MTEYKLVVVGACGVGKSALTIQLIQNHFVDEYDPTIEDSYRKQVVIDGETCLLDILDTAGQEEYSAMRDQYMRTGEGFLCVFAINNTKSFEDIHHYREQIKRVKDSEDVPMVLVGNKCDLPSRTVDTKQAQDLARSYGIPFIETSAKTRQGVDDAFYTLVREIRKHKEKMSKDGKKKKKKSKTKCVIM

Regarding `C[C@H]1CN(C(=O)/C(F)=C/c2nccs2)CCN1c1nc(OC[C@@H]2CCCN2C)nc2c1CCN(c1cccc3cccc(Cl)c13)C2` [Example 15, (Z)-1-((S)-4-(7-(8-chloronaphthalen-1-yl)-2-(((S)-1-methylpyrrolidin-2-yl)methoxy)-5,6,7,8-tetrahydropyrido[3,4-d]pyrimidin-4-yl)-3-methylpiperazin-1-yl)-2-fluoro-3-(thiazol-2-yl)prop-2-en-1-one], the pIC50 was 5.12.
The result for `Cc1ccnc(/C=C(\F)C(=O)N2CCN(c3nc(OC[C@@H]4CCCN4C)nc4c3CCN(c3cccc5cccc(Cl)c35)C4)C[C@@H]2CC#N)c1` [Example 12, 2-((S)-4-(7-(8-chloronaphthalen-1-yl)-2-(((S)-1-methylpyrrolidin-2-yl)methoxy)-5,6,7,8-tetrahydropyrido[3,4-d]pyrimidin-4-yl)-1-((Z)-2-fluoro-3-(4-methylpyridin-2-yl)acryloyl)piperazin-2-yl)acetonitrile] reads 6.89; that for `Cc1cccnc1/C=C(\F)C(=O)N1CCN(c2nc(OC[C@@H]3CCCN3C)nc3c2CCN(c2cccc4cccc(Cl)c24)C3)C[C@@H]1CC#N` [Example 14, 2-((S)-4-(7-(8-chloronaphthalen-1-yl)-2-(((S)-1-methylpyrrolidin-2-yl)methoxy)-5,6,7,8-tetrahydropyrido[3,4-d]pyrimidin-4-yl)-1-((Z)-2-fluoro-3-(3-methylpyridin-2-yl)acryloyl)piperazin-2-yl)acetonitrile], 6.11; that for `N#CC[C@H]1CN(c2nc(OC[C@@]34CCCN3C[C@H](F)C4)nc3c2CCN(c2cccc4cccc(Cl)c24)C3)CCN1C(=O)/C(F)=C/c1ccccn1` [Example 7, 2-((S)-4-(7-(8-chloronaphthalen-1-yl)-2 (((2R,7aS)-2-fluorotetrahydro-1H-pyrrolizin-7a(5H)-yl)methoxy)-5,6,7,8-tetrahydropyrido[3,4-d]pyrimidin-4-yl)-1-((Z)-2-fluoro-3-(pyridin-2-yl)acryloyl)piperazin-2-yl)acetonitrile], 7.13.
Take `CN1CCC[C@H]1COc1nc2c(c(N3CCN(C(=O)/C(F)=C/c4ccon4)[C@@H](CC#N)C3)n1)CCN(c1cccc3cccc(Cl)c13)C2` [Example 16, 2-((S)-4-(7-(8-chloronaphthalen-1-yl)-2-(((S)-1-methylpyrrolidin-2-yl)methoxy)-5,6,7,8-tetrahydropyrido[3,4-d]pyrimidin-4-yl)-1-((Z)-2-fluoro-3-(isoxazol-3-yl)acryloyl)piperazin-2-yl)acetonitrile]: the pIC50 is 4.20.
Consider `CN1CCC[C@H]1COc1nc2c(c(N3CCN(C(=O)/C(F)=C/c4ccncc4)[C@@H](CC#N)C3)n1)CCN(c1cccc3cccc(Cl)c13)C2` [Example 3, 2-((S)-4-(7-(8-chloronaphthalen-1-yl)-2-(((S)-1-methylpyrrolidin-2-yl)methoxy)-5,6,7,8-tetrahydropyrido[3,4-d]pyrimidin-4-yl)-1-((Z)-2-fluoro-3-(pyridin-4-yl)acryloyl)piperazin-2-yl)acetonitrile], for which the negative logarithm of the IC50 (pIC50) was 6.48.
`Cc1ccc(/C=C(\F)C(=O)N2CCN(c3nc(OC[C@@H]4CCCN4C)nc4c3CCN(c3cccc5cccc(Cl)c35)C4)C[C@@H]2CC#N)nc1` [Example 13, 2-((S)-4-(7-(8-chloronaphthalen-1-yl)-2-(((S)-1-methylpyrrolidin-2-yl)methoxy)-5,6,7,8-tetrahydropyrido[3,4-d]pyrimidin-4-yl)-1-((Z)-2-fluoro-3-(5-methylpyridin-2-yl)acryloyl)piperazin-2-yl)acetonitrile]: the pIC50 is 6.72.
As for `CN1CCC[C@H]1COc1nc2c(c(N3CCN(C(=O)/C(F)=C/c4nccn4C)[C@@H](CC#N)C3)n1)CCN(c1cccc3cccc(Cl)c13)C2` [Example 10, 2-((S)-4-(7-(8-chloronaphthalen-1-yl)-2-(((S)-1-methylpyrrolidin-2-yl)methoxy)-5,6,7,8-tetrahydropyrido[3,4-d]pyrimidin-4-yl)-1-((Z)-2-fluoro-3-(1-methyl-1H-imidazol-2-yl)acryloyl)piperazin-2-yl)acetonitrile], the pIC50 was 4.62.
As to `CN1CCC[C@H]1COc1nc2c(c(N3CCN(C(=O)C(F)=Cc4ccns4)[C@@H](CC#N)C3)n1)CCN(c1cccc3cccc(Cl)c13)C2` (racemic) [Example 9, 2-((S)-4-(7-(8-chloronaphthalen-1-yl)-2-(((S)-1-methylpyrrolidin-2-yl)methoxy)-5,6,7,8-tetrahydropyrido[3,4-d]pyrimidin-4-yl)-1-(2-fluoro-3-(isothiazol-5-yl)acryloyl)piperazin-2-yl)acetonitrile], the negative-log IC50 (pIC50) was 4.24.
The result for `CN1CCC[C@H]1COc1nc2c(c(N3CCN(C(=O)/C(F)=C/c4cn(C)nn4)[C@@H](CC#N)C3)n1)CCN(c1cccc3cccc(Cl)c13)C2` [Example 18] reads 4.03; that for `Cc1cccc(/C=C(\F)C(=O)N2CCN(c3nc(OC[C@@H]4CCCN4C)nc4c3CCN(c3cccc5cccc(Cl)c35)C4)C[C@@H]2CC#N)n1` [Example 11, 2-((S)-4-(7-(8-chloronaphthalen-1-yl)-2-(((S)-1-methylpyrrolidin-2-yl)methoxy)-5,6,7,8-tetrahydropyrido[3,4-d]pyrimidin-4-yl)-1-((Z)-2-fluoro-3-(6-methylpyridin-2-yl)acryloyl)piperazin-2-yl)acetonitrile], 6.84.
The result for `CN1CCC[C@H]1COc1nc2c(c(N3CCN(C(=O)/C(F)=C/c4ncccn4)[C@@H](CC#N)C3)n1)CCN(c1cccc3cccc(Cl)c13)C2` [Example 4, 2-((S)-4-(7-(8-chloronaphthalen-1-yl)-2-(((S)-1-methylpyrrolidin-2-yl)methoxy)-5,6,7,8-tetrahydropyrido[3,4-d]pyrimidin-4-yl)-1-((Z)-2-fluoro-3-(pyrimidin-2-yl)acryloyl)piperazin-2-yl)acetonitrile] reads 6.99; that for `N#CC[C@H]1CN(c2nc(OC[C@@]34CCCN3C[C@H](F)C4)nc3c2CCN(c2cccc4cccc(Cl)c24)C3)CCN1C(=O)/C(F)=C/c1nccs1` [Example 8, 2-((S)-4-(7-(8-chloronaphthalen-1-yl)-2 (((2R,7aS)-2-fluorotetrahydro-1H-pyrrolizin-7a(5H)-yl)methoxy)-5,6,7,8-tetrahydropyrido[3,4-d]pyrimidin-4-yl)-1-((Z)-2-fluoro-3-(thiazol-2-yl)acryloyl)piperazin-2-yl)acetonitrile], 7.26; that for `CN1CCC[C@H]1COc1nc2c(c(N3CCN(C(=O)/C(F)=C/c4ccno4)[C@@H](CC#N)C3)n1)CCN(c1cccc3cccc(Cl)c13)C2` [Example 17], 4.98.
The result for `CN1CCC[C@H]1COc1nc2c(c(N3CCN(C(=O)/C(F)=C/c4cccnc4)[C@@H](CC#N)C3)n1)CCN(c1cccc3cccc(Cl)c13)C2` [Example 2, 2-((S)-4-(7-(8-chloronaphthalen-1-yl)-2-(((S)-1-methylpyrrolidin-2-yl)methoxy)-5,6,7,8-tetrahydropyrido[3,4-d]pyrimidin-4-yl)-1-((Z)-2-fluoro-3-(pyridin-3-yl)acryloyl)piperazin-2-yl)acetonitrile] reads 4.40.
As for `CN1CCC[C@H]1COc1nc2c(c(N3CCN(C(=O)/C(F)=C/c4ncco4)[C@@H](CC#N)C3)n1)CCN(c1cccc3cccc(Cl)c13)C2` [Example 6, 2-((S)-4-(7-(8-chloronaphthalen-1-yl)-2-(((S)-1-methylpyrrolidin-2-yl)methoxy)-5,6,7,8-tetrahydropyrido[3,4-d]pyrimidin-4-yl)-1-((Z)-2-fluoro-3-(oxazol-2-yl)acryloyl)piperazin-2-yl)acetonitrile], the pIC50 was 7.05.
